# Assay results: publication PMC11153573, “Structural basis for expanded substrate specificities of human long chain acyl-CoA dehydrogenase and related acyl-CoA dehydrogenases” (Scientific Reports, 2024)
# Where a chain is given by its changes, count along the chain named.
# Experiments:
# [1] = molecular target: T1, human long-chain acyl-CoA dehydrogenase (LCAD) (Homo sapiens, UniProt P28330); test: ferricenium reduction assay, spectrophotometric; format: biochemical; conditions: ferricenium as terminal electron acceptor
# T1 construct: gene ACADL; 400-residue mature protein without 30-residue mitochondrial transport peptide; pET11a-LCAD in E. coli BL21(DE3); no tag mentioned; 43 kDa subunit, homotetramer; numbering of the 430-residue preprotein
# T1 sequence (P28330 31-430): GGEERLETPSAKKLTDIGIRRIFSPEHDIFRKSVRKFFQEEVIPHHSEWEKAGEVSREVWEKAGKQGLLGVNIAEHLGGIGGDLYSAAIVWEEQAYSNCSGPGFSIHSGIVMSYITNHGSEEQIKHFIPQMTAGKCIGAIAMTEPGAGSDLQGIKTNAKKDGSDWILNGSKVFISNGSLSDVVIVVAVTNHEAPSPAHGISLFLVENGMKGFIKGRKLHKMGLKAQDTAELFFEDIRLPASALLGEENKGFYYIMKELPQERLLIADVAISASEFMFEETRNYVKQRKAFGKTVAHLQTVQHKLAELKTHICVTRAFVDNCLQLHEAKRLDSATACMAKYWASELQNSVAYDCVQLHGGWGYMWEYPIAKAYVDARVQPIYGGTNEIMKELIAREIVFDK
# [2] = molecular target: T1, human long-chain acyl-CoA dehydrogenase (LCAD); test: X-ray crystallography, […] Å; format: binding; conditions: noncovalent, one FAD per subunit, at dimer interface; no substrate ligand; pH 8.2-8.5
# [3] = molecular target: T2, human long-chain acyl-CoA dehydrogenase (LCAD) (Homo sapiens, UniProt P28330, E291Q); test: X-ray crystallography, […] Å, co-crystallized with C12-CoA; format: binding; conditions: noncovalent, one FAD per subunit; pH 8.2-8.5
# T2 construct: gene ACADL; 400-residue mature protein without 30-residue mitochondrial transport peptide; pET11a-LCAD in E. coli BL21(DE3); no tag mentioned; 43 kDa subunit, homotetramer; numbering of the 430-residue preprotein
# T2 sequence (P28330 31-430 E291Q): T1 sequence (P28330 31-430) with E261Q
# [4] = molecular target: T1, human long-chain acyl-CoA dehydrogenase (LCAD); test: X-ray crystallography, […] Å, soaked crystal; format: binding; conditions: active site; inhibitor; bound in monomers A and B only; 0.1% beta-octyl glucoside, pH 8.2-8.5
smiles,measurement,setting,value
CCCCCCCCCCCC(=O)SCCNC(=O)CCNC(=O)[C@H](O)C(C)(C)COP(=O)(O)OP(=O)(O)OC[C@H]1O[C@@H](n2cnc3c(N)ncnc32)[C@H](O)[C@@H]1OP(=O)(O)O [C12-CoA],"ferricenium reduction assay, spectrophotometric",[1],The reaction was initiated by addition of C12-CoA substrate
Cc1cc2nc3c(=O)[nH]c(=O)nc-3n(C[C@H](O)[C@H](O)[C@H](O)COP(=O)(O)OP(=O)(O)OC[C@H]3O[C@@H](n4cnc5c(N)ncnc54)[C@H](O)[C@@H]3O)c2cc1C [FAD],"X-ray crystallography, 2.5 Å",[2],The strong electron density map in the FAD position indicated the correctness of the solution
same,"X-ray crystallography, 2.0 Å, co-crystallized with C12-CoA",[3],"FAD, Gly412, and the catalytic residue (E291Q) are shown as sticks"
CC(=O)CC(=O)SCCNC(=O)CCNC(=O)[C@H](O)C(C)(C)COP(=O)(O)OP(=O)(O)OC[C@H]1O[C@@H](n2cnc3c(N)ncnc32)[C@H](O)[C@@H]1OP(=O)(O)O [acetoacetyl-CoA],"X-ray crystallography, 2.8 Å, soaked crystal",[4],the inhibitor acetoacetyl-CoA can be soaked into the crystals
